Patent US8492348B2, “Methods of increasing cerebral blood flow” (The Board of Trustees of the Leland Stanford Junior …, priority 2005, dated 2013)

What was measured:
[1] = system: rats subjected to ischemic/reperfusion injury by middle cerebral artery (MCA) occlusion; experiment: Cerebral blood flow by laser Doppler flowmetry after single intraperitoneal bolus (Example 1); assay type: in vivo, Sprague-Dawley rats; conditions: bolus intraperitoneal delivery
Excerpt: Male Sprague-Dawley rats (280-320g; n=8) were used for cerebral ischemia and reperfusion, and subsequent monitoring of cerebral blood flow. Tat or δV1-1 peptides were synthesized and conjugated via a Cys S—S bond as described previously (Chen, et al., Proc. Natl. Acad. Sci. USA 25(20):11114-11119 (2001); Inagaki, et al., Circulation 11(108):2304-2307 (2003)). Rats were sacrificed by overdose of isoflurane immediately following procedure
(§1) Ischemia and reperfusion were induced in male Sprague-Dawley rats using an occluding intraluminal suture as described in Maier, et al., J. Neurosurg. 94(1):90-96 (2001). Briefly, an uncoated 30 mm long segment of 3-0 nylon monofilament suture with the tip rounded by a flame was inserted into the stump of the external carotid artery and advanced into the internal carotid artery 19-20 mm from the bifurcation to occlude the ostium of the middle cerebral artery (MCA). Following placement of the suture, the wound was closed and animals were placed back in cages for a period of two hours. Following this period, animals were reanestheized and the suture was withdrawn to allow reperfusion of the brain.
Immediately following reperfusion, the rats were placed in a stereotaxic frame, and a burr hole was drilled through the skull 1 mm posterior and 6 mm lateral to the bregma on the ipsilateral hemisphere corresponding to the ischemic territory. Cerebral blood flow (CBF) was measured via this burr hole using a laser Doppler probe controlled by a micromanipulator (Laserflo BPM403A laser-Doppler flowmeter, Vasamedic, St. Paul, Minn.). The display is digital only, collects eight data points per second, and was set to give a moving average of data every 0.1 sec. (Perez-Pinzon, et al., J. Neurolog. Sci. 153 (1):25-31 (1997); Borlongan, et al., Brain Res. 1010(1-2):108-116 (2004)). CBF readings began at 30 minutes from the onset of reperfusion. Following a period of 20-30 minutes to establish baseline CBF, a δPKC inhibitor, the δV1-1 peptide (which was conjugated to Tat for delivery), was injected by intraperitoneal bolus, and blood flow was monitored for an additional 20-30 minutes.

[2] = system: rats subjected to ischemic/reperfusion injury by middle cerebral artery (MCA) occlusion; experiment: Transmission electron microscopy of brain tissue, ischemic penumbra, after MCA occlusion (Example 3); assay type: in vivo, Sprague-Dawley rats; conditions: for number of vessels per field (patent microvessels): 120 min MCA occlusion, 4 hrs reperfusion, 0.2 mg/kg bolus intraperitoneal at onset of reperfusion, 1200x fields, n=4, FIG. 5
Description: Sprague-Dawley rats underwent 120 minutes MCA occlusion, followed by 4 hrs of reperfusion. Rats were treated with either TAT or δV1-1-TAT peptides at the onset of reperfusion by bolus intraperitoneal injection (0.2 mg/kg in 1 mL, n=4 per group). […] Following the reperfusion period, rats were heavily anesthetized using isoflurane, and underwent transcardial perfusion using 0.7% NaCl/PBS followed by 4% formaldehyde in 0.7% NaCl/PBS.
Brains were removed and kept at 4° C. overnight in 2% formaldehyde/2% glutaraldehyde in 0.1M sodium cacodylate buffer, pH 7.3, Brain sections (˜1 mm^3) were then dissected from the cortical surface, at ˜1 mm anterior/˜6 mm lateral to bregma on the ipsilateral cortex (corresponding to the area measured by laser Doppler flowmetry). Tissue was post-fixed in 1% osmium tetroxide for 1 hr, washed with water, and stained in 1% uranyl acetate solution. Tissue was dehydrated using an ethanol gradient followed by 100% propylene oxide, and infiltrated with Epon and Embed 812 medium, placed in molds, and polymerized overnight at 65° C. before slicing. Sections (75 and 90 nm) were picked up on formvar/Carbon coated Cu grids, stained for 15 seconds in 1:1 Super-saturated uranyl acetate (7.7%) in acetone followed by staining in 0.2% lead citrate for 3 to 4 minutes (all reagents from Electron Microscopy Sciences, PA).
To quantitate number of patent vessels, 10-15 non-overlapping fields (1200× magnification) were photographed from 2-3 slices taken from each animal. Vessels were identified and counted if lumen and endothelial lining was apparent; vessels were confirmed by scanning over these fields at higher magnification. Assessments of vessel count were performed by an observer blinded to treatment group. The number of vessels per field was then averaged for each group of animals (n=4 per group). Statistical differences between groups were analyzed using an unpaired t-test. Higher magnification images (5000-15000×) were taken to assess microvascular morphology.

[3] = system: rats subjected to ischemic/reperfusion injury; experiment: Cerebral blood flow after repeated intraperitoneal administrations (Example 2); assay type: in vivo
Excerpt: as §1
Immediately following reperfusion, the rats were placed in a stereotaxic frame, and a burr hole was drilled through the skull 1 mm posterior and 6 mm lateral to the bregma on the ipsilateral hemisphere corresponding to the ischemic territory. Cerebral blood flow (CBF) was measured via this burr hole using a laser Doppler probe controlled by a micromanipulator (Laserflo BPM403A laser-Doppler flowmeter, Vasamedic, St. Paul, Minn.). The display is digital only, collects eight data points per second, and was set to give a moving average of data every 0.1 sec. […] CBF readings began at 30 minutes from the onset of reperfusion. […]

[4] = rats subjected to ischemic/reperfusion injury (2 h MCA occlusion), within 30 minutes, FIG. 2
[5] = sham (non-stroked) rats, within 30 minutes of delivery, FIG. 1

Row | Sequence | cerebral blood flow (CBF) [1, 4] | cerebral blood flow (CBF) [1, 5] | number of vessels per field (patent microvessels) [2] [vessels/field] | microvascular structure (higher magnification TEM) ([2]; ischemic animals, 0.2 mg/kg at reperfusion only, FIGS. 4F, 4I, 4L) | desensitization to the inhibitor ([3]; ischemic/reperfusion rats treated multiple times) | cerebral blood flow (CBF) ([3]; ischemic/reperfusion rats, repeated intraperitoneal administrations, FIG. 3)
1 | YGRKKRRQRRR [TAT, reference compound] | no effect on CBF | no effect on CBF | 1.6±0.6 | – | – | –
2 | SFNSYELGSL [δV1-1-TAT] | increased cerebral blood flow | no change in blood flow | 3.1±0.6 | significantly less damaged | did not become desensitized | further increased blood flow
